The values below are quoted from earlier work in US8883830B2, “Topical therapy for the treatment of migraines, muscle sprains, muscle spasms, spasticity and related conditions” (Afgin Pharma LLC., priority 2003, dated 2014).

For data set [1] the following is noted: relative to ergotamine.

Take `CN1C[C@H](C(=O)N[C@]2(C)O[C@@]3(O)[C@@H]4CCCN4C(=O)[C@H](Cc4ccccc4)N3C2=O)C[C@@H]2c3cccc4[nH]cc(c34)C[C@H]21` [Dihydroergotamine]: the “emetic activity compared with ergotamine” value in data set [1] is listed as “about 12 times less active”.

Turning to `CNS(=O)(=O)CCc1ccc2[nH]cc(C3CCN(C)CC3)c2c1` [naratriptan], the oral bioavailability is on record as about 70%.
